According to ChEMBL document CHEMBL5136987, “Redesigning of the cap conformation and symmetry of the diphenylethyne core to yield highly potent pan-genotypic NS5A inhibitors with high potency and high resistance barrier” (Eur J Med Chem, 2022):
The source made the active and inactive calls. The calls are words filed in the database; no cut-off is given here.

Legend:
[1] = Selectivity index, ratio of CC50 for cytotoxicity against human Huh-5-2 cells carrying HCV subgenomic replicon assessed as decrease in intracellular ATP level to EC50 for antiviral activity against HCV GT-1b Con1 in human Huh-5-2 cells carrying HCV subgenomic replicon assessed as reduction of viral replication; assay type: toxicity, cell-based; settings: read-out: Ratio CC50/EC50
[2] = Cytotoxicity against human Huh-5-2 cells carrying HCV subgenomic replicon assessed as decrease in intracellular ATP level measured after 72 hrs by Glo-max luminescence based assay; assay type: toxicity, cell-based
[3] = test system: Hepatitis C virus; assay: Antiviral activity against HCV GT-1b Con1 in human Huh-5-2 cells carrying HCV subgenomic replicon assessed as reduction of viral replication measured after 72 hrs by Firefly luciferase reporter gene assay; assay type: functional, organism-based, Hepacivirus hominis; settings: subtype 1b Con1, Huh-5-2, 72 h
[4] = Selectivity index, ratio of EC50 for antiviral activity against HCV GT-1b Con1 in human Huh-5-2 cells carrying HCV subgenomic replicon assessed as drug resistance measured after 15weeks in presence of G418 by NGS analysis to EC50 for antiviral activity against HCV GT-1b Con1 in human Huh-5-2 cells carrying HCV subgenomic replicon assessed as drug resistance measured after 30 passages in presence of G418; assay type: functional, Hepatitis C virus subtype 1b
[5] = test system: Hepatitis C virus; assay: Antiviral activity against HCV 3a S52 in human Huh7.5 cells carrying HCV subgenomic replicons assessed as inhibition of viral replication measured after 72 hrs by Firefly luciferase reporter gene assay; assay type: functional, organism-based, Hepacivirus hominis; settings: subtype 3a S52, Huh7.5, 72 h
[6] = test system: Hepatitis C virus; assay: Antiviral activity against HCV 4a ED43 in human Huh7.5 cells carrying HCV subgenomic replicon assessed as inhibition of viral replication measured after 72 hrs by Firefly luciferase reporter gene assay; assay type: functional, organism-based, Hepacivirus hominis; settings: subtype 4a ED43, Huh7.5, 72 h
[7] = test system: Hepatitis C virus; assay: Antiviral activity against HCV GT-1b Con1 in human Huh-5-2 cells carrying HCV subgenomic replicon assessed as drug resistance upto 100X EC50 and measured after 30 passages in presence of G418 by NGS analysis; assay type: functional, organism-based, Hepacivirus hominis; settings: subtype 1b Con1, Huh-5-2
[8] = test system: Hepatitis C virus; assay: Antiviral activity against full length HCV GT-1a H77S.3 in human Huh-7-Lunet cells carrying HCV subgenomic replicon assessed as inhibition of viral replication measured after 72 hrs by Firefly luciferase reporter gene assay; assay type: functional, organism-based, Hepacivirus hominis; settings: genotype 1a H77S.3, Huh-7, 72 h
[9] = test system: Hepatitis C virus; assay: Antiviral activity against HCV GT-1b Con1 in human Huh-5-2 cells carrying HCV subgenomic replicon assessed as drug resistance upto 100X EC50 and measured after 15 weeks in presence of G418 by NGS analysis; assay type: functional, organism-based, Hepacivirus hominis; settings: subtype 1b Con1, Huh-5-2
[10] = test system: Hepatitis C virus; assay: Antiviral activity against HCV 2a JFH1 in human Huh-7 cells carrying HCV subgenomic replicon assessed as inhibition of viral replication measured after 72 hrs by Firefly luciferase reporter gene assay; assay type: functional, cell-based; settings: 2a JFH1, Huh-7, 72 h
[11] = Metabolic stability in human S9 fraction assessed as clearance at 10 mg/ml measured upto 120 mins in presence of NADP […] system by LC-MS/MS analysis; assay type: ADME, subcellular
[12] = Metabolic stability in human S9 fraction assessed as half life at 10 mg/ml measured upto 120 mins in presence of NADP […] system by LC-MS/MS analysis; assay type: ADME, subcellular
[13] = test system: Hepatitis C virus; assay: Antiviral activity against HCV GT-1b Con1 infected in human Huh-5-2 cells carrying HCV subgenomic replicon assessed as reduction in NS5A protein level incubated at 3.3 to 30 pM by PI staining based indirect immunofluorescence assay; assay type: functional, organism-based; settings: Hepacivirus hominis, subtype 1b Con1, dose 3.3-30 pM
[14] = test system: Hepatitis C virus; assay: Antiviral activity against HCV GT-1b Con1 infected in human Huh-5-2 cells carrying HCV subgenomic replicon assessed as reduction of viral replication by RT-qPCR analysis; assay type: functional, organism-based, Hepacivirus hominis; settings: subtype 1b Con1, Huh-5-2

SMILES	selectivity ratio [1]	CC50 at 72 h [2] [nM]	EC50 [3] [nM]	half-life at 10 mg/ml [12] [min]	further results
CCOC(=O)N[C@@H](CC(C)C)C(=O)N1CCC[C@H]1C(=O)Nc1cccc(C#Cc2cccc(NC(=O)[C@@H]3CCCN3C(=O)[C@H](CC(C)C)NC(=O)OCC)c2)c1	968	24200	25	–	–
COC(=O)N[C@H](CCSC)C(=O)N1CCC[C@H]1C(=O)Nc1cccc(C#Cc2cccc(NC(=O)[C@@H]3CCCN3C(=O)[C@@H](CCSC)NC(=O)OC)c2)c1	> 1890	> 1000	0.528	–	–
COC(=O)N[C@@H](C(=O)N1CCC[C@H]1C(=O)Nc1cccc(C#Cc2cccc(NC(=O)[C@@H]3CCCN3C(=O)[C@H](NC(=O)OC)C(C)C)c2)c1)C(C)C	> 891	> 1000	1.12	–	–
COC(=O)N[C@H](C(=O)N1CCC[C@H]1c1ncc(-c2ccc(-c3ccc(-c4cnc([C@@H]5CCCN5C(=O)[C@@H](NC(=O)OC)C(C)C)[nH]4)cc3)cc2)[nH]1)C(C)C [DACLATASVIR]	–	–	–	–	Ratio EC50 [4]: 132; EC50 [5]: 8.35 nM; EC50 [6]: 0.0212 nM; EC50 [7]: 0.0257 nM; EC50 [8]: 0.136 nM; EC50 [9]: 3.39 nM; EC50 [10]: 0.0578 nM
COC(=O)N[C@H](C(=O)N1CCC[C@H]1C(=O)Nc1ccc(C#Cc2ccc(NC(=O)[C@@H]3CCCN3C(=O)[C@@H](NC(=O)OC)C(C)C)cc2)cc1)C(C)C	> 7660	> 1000	0.131	–	EC50 [5]: 405 nM; EC50 [6]: 446 nM; EC50 [10]: 60.1 nM
CCSC[C@@H](NC(=O)OC)C(=O)N1CCC[C@H]1C(=O)Nc1cccc(C#Cc2cccc(NC(=O)[C@@H]3CCCN3C(=O)[C@@H](CSCC)NC(=O)OC)c2)c1	13000	11200	0.86	–	–
COC(=O)N[C@H](C(=O)N1CCC[C@H]1C(=O)Nc1cccc(C#Cc2cccc(NC(=O)[C@@H]3CCCN3C(=O)[C@H](NC(=O)OC)c3ccccc3)c2)c1)C(C)C	–	33600	0.0033	18.8	microsomal CLint [11]: 36.4 µL/min/mg
C[C@]12CC[C@H]3[C@@H](CCC4=CC(=O)CC[C@@]43C)[C@@H]1CC[C@@H]2O [TESTOSTERONE]	–	–	–	7.4	–
COC(=O)N[C@H](CC(C)C)C(=O)N1CCC[C@H]1C(=O)Nc1cccc(C#Cc2cccc(NC(=O)[C@@H]3CCCN3C(=O)[C@@H](CC(C)C)NC(=O)OC)c2)c1	560000	97800	0.175	–	–
COC(=O)N[C@@H](CC(C)C)C(=O)N1CCC[C@H]1C(=O)Nc1cccc(C#Cc2cccc(NC(=O)[C@@H]3CCCN3C(=O)[C@H](CC(C)C)NC(=O)OC)c2)c1	407000	54400	0.133	–	–
COC(=O)N[C@@H](C(=O)N1CCCC1C(=O)Nc1cccc(C#Cc2cccc(-c3cnc([C@@H]4CCCN4C(=O)[C@H](NC(=O)OC)c4ccccc4)[nH]3)c2)c1)c1ccccc1 (single isomer, unassigned)	> 11000	> 1000	0.0906	73.6	microsomal CLint [11]: 9.4 µL/min/mg
CCOC(=O)N[C@H](C(=O)N1CCC[C@H]1C(=O)Nc1cccc(C#Cc2cccc(NC(=O)[C@@H]3CCCN3C(=O)[C@@H](NC(=O)OCC)C(C)C)c2)c1)C(C)C	> 8230	> 100000	12.2	–	–
COC(=O)N[C@@H](C(=O)N1CCC[C@H]1C(=O)Nc1cccc(C#Cc2cccc(NC(=O)[C@@H]3CCCN3C(=O)[C@H](NC(=O)OC)c3ccccc3)c2)c1)c1ccccc1	–	43200	0.00123	20	Ratio EC50 [4]: 64.4; EC50 [5]: 0.0559 nM; Activity [13]: Active; EC50 [14]: 0.00157 nM; EC50 [6]: 0.0163 nM; EC50 [7]: 0.00266 nM; microsomal CLint [11]: 35.6 µL/min/mg; EC50 [8]: 0.0259 nM; EC50 [9]: 0.171 nM; EC50 [10]: 0.123 nM
COC(=O)N[C@@H](CCSC)C(=O)N1CCC[C@H]1C(=O)Nc1cccc(C#Cc2cccc(NC(=O)[C@@H]3CCCN3C(=O)[C@H](CCSC)NC(=O)OC)c2)c1	> 7350	> 1000	0.136	–	–
COC(=O)N[C@H](C(=O)N1CCC[C@H]1C(=O)Nc1ccc(C#Cc2cccc(NC(=O)[C@@H]3CCCN3C(=O)[C@@H](NC(=O)OC)C(C)C)c2)cc1)C(C)C	231000	41200	0.179	–	–
COC(=O)N[C@H](C(=O)N1CCC[C@H]1C(=O)Nc1cccc(C#Cc2cccc(NC(=O)[C@@H]3CCCN3C(=O)[C@@H](NC(=O)OC)c3ccccc3)c2)c1)c1ccccc1	5.56e+06	24200	0.0044	75.9	microsomal CLint [11]: 9.9 µL/min/mg
COC(=O)N[C@@H](C(=O)N1CCC[C@H]1C(=O)Nc1cccc(C#Cc2ccc(-c3cnc([C@@H]4CCCN4C(=O)[C@H](NC(=O)OC)c4ccccc4)[nH]3)cc2)c1)c1ccccc1	–	26200	0.00114	> 120	EC50 [5]: 0.229 nM; EC50 [6]: 0.0504 nM; microsomal CLint [11]: < 5.8 µL/min/mg; EC50 [10]: 0.134 nM
COC(=O)N[C@@H](C(=O)N1CCC[C@H]1C(=O)Nc1ccc(C#Cc2cccc(NC(=O)[C@@H]3CCCN3C(=O)[C@H](NC(=O)OC)c3ccccc3)c2)cc1)c1ccccc1	> 995	> 1000	1	–	–
CCCCOC(=O)N[C@@H](CC(C)C)C(=O)N1CCC[C@H]1C(=O)Nc1cccc(C#Cc2cccc(NC(=O)[C@@H]3CCCN3C(=O)[C@H](CC(C)C)NC(=O)OCCCC)c2)c1	–	> 1000	> 1000	–	–
CCCCOC(=O)N[C@H](C(=O)N1CCC[C@H]1C(=O)Nc1cccc(C#Cc2cccc(NC(=O)[C@@H]3CCCN3C(=O)[C@@H](NC(=O)OCCCC)C(C)C)c2)c1)C(C)C	> 173	> 100000	577	–	–
COC(=O)N[C@H](C(=O)N1CCC[C@H]1C(=O)Nc1cccc(C#Cc2cccc(NC(=O)[C@@H]3CCCN3C(=O)[C@@H](NC(=O)OC)C(C)C)c2)c1)C(C)C	> 3.25e+06	> 100000	0.0308	–	EC50 [5]: 2150 nM; EC50 [6]: 279 nM; EC50 [10]: 233 nM
CC(C)[C@H](NC(=O)OCc1ccccc1)C(=O)N1CCC[C@H]1C(=O)Nc1cccc(C#Cc2cccc(NC(=O)[C@@H]3CCCN3C(=O)[C@@H](NC(=O)OCc3ccccc3)C(C)C)c2)c1	–	> 1000	999	–	–
COC(=O)N[C@@H](C(=O)N1CCC[C@H]1C(=O)Nc1ccc(C#Cc2ccc(NC(=O)[C@@H]3CCCN3C(=O)[C@H](NC(=O)OC)c3ccccc3)cc2)cc1)c1ccccc1	–	28200	0.00259	> 120	EC50 [5]: 0.316 nM; EC50 [6]: 0.194 nM; microsomal CLint [11]: < 5.8 µL/min/mg; EC50 [10]: 0.147 nM
